Results taken from paper PMC11402846, “Does a postmortem redistribution affect the concentrations of the 7 azaindole-derived synthetic cannabinoid 5F-MDMB-P7AICA in tissues and body fluids following pulmonary administration to pigs?” (Archives of Toxicology, 2024).

Assays:
[1] = death case, cited from earlier work; for central blood (CB) levels versus peripheral blood (PB) levels: PMI: 20 h, ref Zaitsu et al. ([2015])
[2] = Perimortem and postmortem concentrations in tissues and body fluids after pulmonary administration of 5F-MDMB-P7AICA to pigs (LC-MS/MS); assay type: in vivo; conditions: pig
Procedure: The experiments were conducted in compliance with the German legislation on protection of animals and the National Institutes of Health Guide for the Care and Use of Laboratory Animals (permission number 32/2018). Six domestic male pigs (Swabian Hall strain; body weight [BW] 40–51.2 kg, 3 months old) were kept with free access to water and standard daily food (OlymPig fattening feed, Raiffeisen, Münster, Germany). One night prior to the experiments, the animals were kept fasting. […] The room temperature was 22 ± 1 °C with a humidity of 55 ± 10%.
As previously described (Doerr et al. [2020]; Schaefer et al. [2019], [2020a]), an ethanolic solution of 5 mg/mL 5F-MDMB-P7AICA was prepared. An aliquot of 1.600–2.048 mL was filled up with ethanol to a total volume of 2 mL, if needed to achieve a concentration of 200 µg per kg BW. The SC was administered inhalatively over 6.5–8 min, using a M-Neb flow + ventilation ultrasonic nebulizer MN-300/7 (Nebutec, Elsenfeld, Germany) in the inspiration-triggered mode.
Animal euthanasia was conducted eight hours after the drug administration using T 61 (embutramide, 0.12 mL/kg BW, Intervet Deutschland GmbH, Unterschleißheim, Germany). Afterwards, the abdominal cavity was opened. Samples of the following organs, tissues and body fluids were collected (PMI 0) and stored at − 20 °C until further analysis: Brain (cerebrum), lungs and liver with no differentiation between the lobes, kidneys, muscle tissue (from the hindleg), adipose tissue (subcutaneous (sc), dorsal, perirenal), bile fluid, duodenum content, urine (only at PMI 0) and PB (V. jugularis) as well as CB.
The abdominal cavity was sutured leaving the organs in situ and the animal bodies were kept at room temperature in a supine position. Analogously, samples were taken again after 24, 48 and 72 h (PMI 1–3), respectively. Yet, PM PB specimens were obtained by sampling the coagulated blood from the V. femoralis or V. brachialis. For this purpose, the whole vessel was sampled and the blood was drawn therefrom using a pipette with a wide lumen.
Specimens were prepared according to a previous published method (Schaefer et al. [2017], [2019], [2020a]) with changes regarding the applied buffers and the amount of acetonitrile. An amount of 2 g of solid tissue (brain, lung, liver, kidney and muscle tissue) was homogenized (1:5 w/w with water), respectively and 1 g of body fluids (bile fluid, duodenum content, and urine) was diluted (1:10 w/w for bile and duodenum content, 1:5 w/w for urine, respectively, with water). The samples were stored at − 20 °C.
To determine the standard addition calibration curves, four 0.5 g aliquots were added to 20 µL of an ethanolic stable-isotope-labeled internal standard solution (SIL-IS, 1 ng/20 µL AB-FUBINACA-d4) and 25 µL of ethanol or an ethanolic solution of the analytes.
Subsequently, the solution was mixed with 500 µL of acetate buffer and 50 µL of β-glucuronidase/arylsulfatase and incubated for 2 h at 60 °C to induce enzymatic hydrolysis of the glucuronidated DBA (phase-II metabolite).
For the following protein precipitation, the samples were mixed with 500 µL of acetonitrile and centrifuged at 3500g for 8 min. The supernatants were transferred to 1 mL phosphate buffer (pH 9) vortexed and centrifuged at 3500g for 8 min again.
Solid phase extraction (SPE) was carried out using Strata C18 end capped cartridges (Phenomenex, Aschaffenburg, Germany), previously conditioned with 2 × 3 mL methanol and 3 mL phosphate buffer. After loading the samples, the columns were washed with 3 mL phosphate buffer, 3 mL acetic acid (0.25 M) and 3 mL deionized water, respectively. 60 μL acetone was added and columns were dried for 5 min using negative pressure (about 33 kPa). Thereafter, the analytes were eluted with a mixture of 1.5 mL methanol-acetone (1:1, v/v) and the eluate was evaporated under a gentle stream of nitrogen at 60 °C. […]

[3] = set-up: method as in Walle et al. [2023]; conditions: authentic fatal case, comparable survival time after drug intake; ref Walle et al. [2023]; cited from earlier work
[4] = 200 µg/kg BW inhalative, PMI 0 (8 h after administration)
[5] = 200 µg/kg BW inhalative, PMI 1 (24 h after euthanasia, room temperature)
[6] = 200 µg/kg BW inhalative, PMI 2 (48 h after euthanasia, room temperature)
[7] = 200 µg/kg BW inhalative, PMI 3 (72 h after euthanasia, room temperature)

CN1CCCCC1Cn1cc(C(=O)c2cccc3ccccc23)c2ccccc21 (stereo not drawn) [AM-1220]
central blood (CB) levels versus peripheral blood (PB) levels [1]: significantly exceeded

N#CCCCCn1cc(C(=O)c2cccc3ccccc23)c2ccccc21 [AM-2232]
central blood (CB) levels versus peripheral blood (PB) levels [1]: significantly exceeded

CC(C)(C)C(NC(=O)c1cn(CCCCCF)c2ncccc12)C(=O)O (stereo not drawn) [DBA, 5F-MDMB-P7AICA-dimethylbutanoic acid]
Mean concentration ± SD in CB (central blood) [2, 4]: 0.22 ± 0.11 n = 6 ng/mL | Mean concentration ± SD in bile fluid [2, 4]: 57 ± 100 n = 6 ng/g | Mean concentration ± SD in brain [2, 4]: tested negative and neg | Mean concentration ± SD in dorsal fat [2, 4]: 0.60 ± 0.35 n = 6 ng/g | Mean concentration ± SD in duodenum content [2, 4]: 82 ± 72 n = 6 ng/g | Mean concentration ± SD in kidney [2, 4]: 5.4 ± 4.7 n = 6 ng/g | Mean concentration ± SD in liver [2, 4]: 0.87 ± 0.37 n = 6 ng/g | Mean concentration ± SD in lung [2, 4]: 0.20 ± 0.071 n = 4 ng/g | Mean concentration ± SD in muscle [2, 4]: 0.14 ± 0.011 n = 3 ng/g | Mean concentration ± SD in perirenal fat [2, 4]: 8.8 ± 5.6 n = 6 ng/g | Mean concentration ± SD in s.c. fat [2, 4]: 1.1 ± 1.1 n = 6 ng/g | Mean concentration ± SD in urine [2, 4]: 78 ± 45 n = 6 ng/g | Mean concentration ± SD in CB (central blood) [2, 5]: 0.32 ± 0.40 n = 5 ng/mL | Mean concentration ± SD in PB (peripheral blood) [2, 5]: 0.47 ± 0.21 n = 6 ng/mL | Mean concentration ± SD in bile fluid [2, 5]: 37 ± 71 n = 6 ng/g | Mean concentration ± SD in brain [2, 5]: 0.13 ± 0.056 n = 6 ng/g | Mean concentration ± SD in dorsal fat [2, 5]: 0.28 ± 0.19 n = 6 ng/g | Mean concentration ± SD in duodenum content [2, 5]: 13 ± 15 n = 6 ng/g | Mean concentration ± SD in kidney [2, 5]: 5.1 ± 5.0 n = 6 ng/g | Mean concentration ± SD in liver [2, 5]: 1.2 ± 1.4 n = 6 ng/g | Mean concentration ± SD in lung [2, 5]: 0.33 ± 0.21 n = 5 ng/g | Mean concentration ± SD in muscle [2, 5]: 0.10 ± 0.027 n = 6 ng/g | Mean concentration ± SD in perirenal fat [2, 5]: 1.0 ± 1.2 n = 5 ng/g | Mean concentration ± SD in s.c. fat [2, 5]: 0.45 ± 0.46 n = 5 ng/g | Mean concentration ± SD in CB (central blood) [2, 6]: 0.21 ± 0.17 n = 5 ng/mL | Mean concentration ± SD in PB (peripheral blood) [2, 6]: 0.48 ± 0.16 n = 6 ng/mL | Mean concentration ± SD in brain [2, 6]: 0.18 ± 0.065 n = 6 ng/g | Mean concentration ± SD in dorsal fat [2, 6]: 0.16 ± 0.064 n = 4 ng/g | Mean concentration ± SD in kidney [2, 6]: 7.0 ± 5.9 n = 6 ng/g | Mean concentration ± SD in liver [2, 6]: 1.8 ± 1.2 n = 6 ng/g | Mean concentration ± SD in lung [2, 6]: 0.92 ± 0.69 n = 6 ng/g | Mean concentration ± SD in muscle [2, 6]: 0.11 ± 0.047 n = 5 ng/g | Mean concentration ± SD in perirenal fat [2, 6]: 2.0 ± 1.7 n = 6 ng/g | Mean concentration ± SD in s.c. fat [2, 6]: 0.18 ± 0.086 n = 5 ng/g | Mean concentration ± SD in CB (central blood) [2, 7]: 0.20 ± 0.10 n = 5 ng/mL | Mean concentration ± SD in PB (peripheral blood) [2, 7]: 0.28 ± 0.093 n = 6 ng/mL | Mean concentration ± SD in brain [2, 7]: 0.16 ± 0.043 n = 6 ng/g | Mean concentration ± SD in dorsal fat [2, 7]: 0.11 ± 0.033 n = 5 ng/g | Mean concentration ± SD in duodenum content [2, 7]: 9.0 ± 17 n = 6 ng/g | Mean concentration ± SD in kidney [2, 7]: 6.5 ± 5.9 n = 6 ng/g | Mean concentration ± SD in liver [2, 7]: 2.8 ± 1.9 n = 6 ng/g | Mean concentration ± SD in lung [2, 7]: 0.89 ± 0.57 n = 5 ng/g | Mean concentration ± SD in muscle [2, 7]: 0.17 ± 0.089 n = 6 ng/g | Mean concentration ± SD in perirenal fat [2, 7]: 4.6 ± 3.7 n = 6 ng/g | Mean concentration ± SD in s.c. fat [2, 7]: 0.27 ± 0.17 n = 5 ng/g | Concentration in bile fluid ([2]; 200 µg/kg BW inhalative, PMI 3 (72 h after euthanasia, room temperature), only sampled from 2 pigs): 7.5–120 n = 2^2 ng/g | Mean concentration ± SD in PB (peripheral blood) ([2]; 5F-MDMB-P7AICA 200 µg/kg BW inhalative, PMI 0 (8 h after administration)): 0.18 ± 0.11 n = 6 ng/mL | Postmortem redistribution (PMR) ([2]; 3 days storage at room temperature): no relevant PMR was observed | Amount in the remaining tissues ([2]; PMI 0, tissues other than urine, bile fluid, duodenum content, kidney, perirenal fat): less than 1 ng/g | Concentration change in bile and duodenum ([2]; PMI 2 compared to PMI 0, p < 0.05): decrease was statistically significant | Concentration change in dorsal and subcutaneous fat specimens ([2]; over the PMI): significant lower concentrations over time | CB concentration in fatal case [3]: 46 ng/mL | PB concentration in fatal case [3]: 5.7 ng/mL

Cc1ccc(C(=O)c2cn(CCCCCF)c3ccccc23)c2ccccc12 [MAM-2201]
central blood (CB) levels versus peripheral blood (PB) levels [1]: significantly exceeded

COC(=O)[C@@H](NC(=O)c1cn(CC2CCCCC2)c2ccccc12)C(C)(C)C [MDMB-CHMICA]
quotient of central/peripheral blood (C/P ratio) ([1]; 12 h after death, ref Gaunitz et al. [2018]): ~1
